Source: PubChem BioAssay (NCI)
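All cell lines were grown in 96-well plates and treated with compound for 48 hours. GI50 is the concentration that inhibits growth by half. The concentration for full growth arrest is given as TGI.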

Legend:
Assay in all cases: NCI tumour cell line growth inhibition, 48 h
NCI-H226 lung = test system: NCI-H226 lung
NCI-H522 lung = test system: NCI-H522 lung
ACHN renal = test system: ACHN renal
HCT-15 colon = test system: HCT-15 colon
SF-268 CNS = test system: SF-268 CNS
T-47D breast = test system: T-47D breast
SK-MEL-2 melanoma = test system: SK-MEL-2 melanoma
LOX IMVI melanoma = test system: LOX IMVI melanoma
UACC-257 melanoma = test system: UACC-257 melanoma
OVCAR-5 ovarian = test system: OVCAR-5 ovarian
CCRF-CEM leukemia = test system: CCRF-CEM leukemia
SK-MEL-28 melanoma = test system: SK-MEL-28 melanoma
CAKI-1 renal = test system: CAKI-1 renal
UO-31 renal = test system: UO-31 renal
COLO 205 colon = test system: COLO 205 colon
NCI-H460 lung = test system: NCI-H460 lung
U251 CNS = test system: U251 CNS
UACC-62 melanoma = test system: UACC-62 melanoma
SNB-19 CNS = test system: SNB-19 CNS
SF-295 CNS = test system: SF-295 CNS
NCI/ADR-RES ovarian = test system: NCI/ADR-RES ovarian
RPMI-8226 leukemia = test system: RPMI-8226 leukemia
HOP-92 NSCLC = test system: HOP-92 NSCLC
RXF 393 renal = test system: RXF 393 renal
EKVX NSCLC = test system: EKVX NSCLC
MOLT-4 leukemia = test system: MOLT-4 leukemia
HCT-116 colon = test system: HCT-116 colon
SW-620 colon = test system: SW-620 colon
MDA-MB-435 = test system: MDA-MB-435
PC-3 prostate = test system: PC-3 prostate
786-0 renal = test system: 786-0 renal
OVCAR-3 ovarian = test system: OVCAR-3 ovarian
KM12 colon = test system: KM12 colon
HL-60(TB) leukemia = test system: HL-60(TB) leukemia
NCI-H23 lung = test system: NCI-H23 lung
M14 melanoma = test system: M14 melanoma
HS 578T breast = test system: HS 578T breast
A549 NSCLC = test system: A549 NSCLC
HCC-2998 colon = test system: HCC-2998 colon
TK-10 renal = test system: TK-10 renal
SN12C renal = test system: SN12C renal
MCF7 breast = test system: MCF7 breast
OVCAR-8 ovarian = test system: OVCAR-8 ovarian
K-562 leukemia = test system: K-562 leukemia
IGROV1 ovarian = test system: IGROV1 ovarian
HOP-62 NSCLC = test system: HOP-62 NSCLC
HT29 colon = test system: HT29 colon
MDA-MB-231 breast = test system: MDA-MB-231 breast
SK-MEL-5 melanoma = test system: SK-MEL-5 melanoma
BT-549 breast = test system: BT-549 breast

COC(=O)C1=C(O)C(C(=O)OC)[C@@]2(O)[C@@H](C(=O)OC)C(c3ccc(OC(=O)C(CC(C)C)NC(C)=O)cc3)C[C@@H]1[C@@H]2C(=O)OC (stereo not given in full)
GI50 (NCI-H226 lung): 43 µM | TGI (NCI-H226 lung): > 100 µM | GI50 (NCI-H522 lung): 60.9 µM | TGI (NCI-H522 lung): > 100 µM | GI50 (ACHN renal): 41.9 µM | TGI (ACHN renal): > 100 µM | GI50 (HCT-15 colon): 31.9 µM | TGI (HCT-15 colon): > 100 µM | GI50 (SF-268 CNS): 35.7 µM | TGI (SF-268 CNS): > 100 µM | GI50 (T-47D breast): 37.8 µM | TGI (T-47D breast): > 100 µM | GI50 (SK-MEL-2 melanoma): 81.9 µM | TGI (SK-MEL-2 melanoma): > 100 µM | GI50 (LOX IMVI melanoma): 20.6 µM | TGI (LOX IMVI melanoma): 45 µM | GI50 (UACC-257 melanoma): > 100 µM | TGI (UACC-257 melanoma): > 100 µM | GI50 (OVCAR-5 ovarian): 32.2 µM | TGI (OVCAR-5 ovarian): > 100 µM | GI50 (CCRF-CEM leukemia): 41.4 µM | TGI (CCRF-CEM leukemia): > 100 µM | GI50 (SK-MEL-28 melanoma): > 100 µM | TGI (SK-MEL-28 melanoma): > 100 µM | GI50 (CAKI-1 renal): > 100 µM | TGI (CAKI-1 renal): > 100 µM | GI50 (UO-31 renal): > 100 µM | TGI (UO-31 renal): > 100 µM | GI50 (COLO 205 colon): 46.6 µM | TGI (COLO 205 colon): > 100 µM | GI50 (NCI-H460 lung): 41.6 µM | TGI (NCI-H460 lung): > 100 µM | GI50 (U251 CNS): 26.5 µM | TGI (U251 CNS): 76.4 µM | GI50 (UACC-62 melanoma): 23.2 µM | TGI (UACC-62 melanoma): 63.8 µM | GI50 (SNB-19 CNS): 37.1 µM | TGI (SNB-19 CNS): > 100 µM | GI50 (SF-295 CNS): 74.8 µM | TGI (SF-295 CNS): > 100 µM | GI50 (NCI/ADR-RES ovarian): 39 µM | TGI (NCI/ADR-RES ovarian): > 100 µM | GI50 (RPMI-8226 leukemia): > 100 µM | TGI (RPMI-8226 leukemia): > 100 µM | GI50 (HOP-92 NSCLC): 39.5 µM | TGI (HOP-92 NSCLC): > 100 µM | GI50 (RXF 393 renal): > 100 µM | TGI (RXF 393 renal): > 100 µM | GI50 (EKVX NSCLC): 39.7 µM | TGI (EKVX NSCLC): > 100 µM | GI50 (MOLT-4 leukemia): 48.3 µM | TGI (MOLT-4 leukemia): 97.2 µM | GI50 (HCT-116 colon): 29.3 µM | TGI (HCT-116 colon): > 100 µM | GI50 (SW-620 colon): 55.5 µM | TGI (SW-620 colon): > 100 µM | GI50 (MDA-MB-435): > 100 µM | TGI (MDA-MB-435): > 100 µM | GI50 (PC-3 prostate): 33.9 µM | TGI (PC-3 prostate): > 100 µM | GI50 (786-0 renal): 46.2 µM | TGI (786-0 renal): > 100 µM | GI50 (OVCAR-3 ovarian): > 100 µM | TGI (OVCAR-3 ovarian): > 100 µM | GI50 (KM12 colon): 28.2 µM | TGI (KM12 colon): > 100 µM | GI50 (HL-60(TB) leukemia): 43.9 µM | TGI (HL-60(TB) leukemia): > 100 µM | GI50 (NCI-H23 lung): 36.9 µM | TGI (NCI-H23 lung): > 100 µM | GI50 (M14 melanoma): 27.5 µM | TGI (M14 melanoma): 88.1 µM | GI50 (HS 578T breast): 58.3 µM | TGI (HS 578T breast): > 100 µM | GI50 (A549 NSCLC): 38.3 µM | TGI (A549 NSCLC): > 100 µM | GI50 (HCC-2998 colon): 19 µM | TGI (HCC-2998 colon): 52 µM | GI50 (TK-10 renal): 57.4 µM | TGI (TK-10 renal): > 100 µM | GI50 (SN12C renal): 30.2 µM | TGI (SN12C renal): > 100 µM | GI50 (MCF7 breast): 48.8 µM | TGI (MCF7 breast): > 100 µM | GI50 (OVCAR-8 ovarian): 43.7 µM | TGI (OVCAR-8 ovarian): > 100 µM | GI50 (K-562 leukemia): 95 µM | TGI (K-562 leukemia): > 100 µM | GI50 (IGROV1 ovarian): > 100 µM | TGI (IGROV1 ovarian): > 100 µM | GI50 (HOP-62 NSCLC): 31.2 µM | TGI (HOP-62 NSCLC): > 100 µM | GI50 (HT29 colon): 62.2 µM | TGI (HT29 colon): > 100 µM | GI50 (MDA-MB-231 breast): 30 µM | TGI (MDA-MB-231 breast): > 100 µM | GI50 (SK-MEL-5 melanoma): 18.5 µM | TGI (SK-MEL-5 melanoma): > 100 µM | GI50 (BT-549 breast): 33.6 µM | TGI (BT-549 breast): > 100 µM
